In patent publication US20130184313A1, “NICOTINIC ACETYLCHOLINE RECEPTOR LIGANDS AND THE USES THEREOF” (The Board of Trustees of the University of Illinois, priority 2009, published 2013):
Where “and” joins values, the source holds several entries; their conditions need not be identical. Equal values may be shown once. Where a name gives a salt, the structure may show the parent alone. Marks after values point to notes of the source that are not given here.

How the values were obtained:
[1] = target: α-Bungarotoxin-insensitive (α4β2) neuronal nicotinic receptor (Rattus norvegicus, UniProt P09483+P12390); assay: biochemical; settings: read-out: percent inhibition of the control radioligand specific binding
Sequence of α-Bungarotoxin-insensitive (α4β2) neuronal nicotinic receptor (P09483 31-630): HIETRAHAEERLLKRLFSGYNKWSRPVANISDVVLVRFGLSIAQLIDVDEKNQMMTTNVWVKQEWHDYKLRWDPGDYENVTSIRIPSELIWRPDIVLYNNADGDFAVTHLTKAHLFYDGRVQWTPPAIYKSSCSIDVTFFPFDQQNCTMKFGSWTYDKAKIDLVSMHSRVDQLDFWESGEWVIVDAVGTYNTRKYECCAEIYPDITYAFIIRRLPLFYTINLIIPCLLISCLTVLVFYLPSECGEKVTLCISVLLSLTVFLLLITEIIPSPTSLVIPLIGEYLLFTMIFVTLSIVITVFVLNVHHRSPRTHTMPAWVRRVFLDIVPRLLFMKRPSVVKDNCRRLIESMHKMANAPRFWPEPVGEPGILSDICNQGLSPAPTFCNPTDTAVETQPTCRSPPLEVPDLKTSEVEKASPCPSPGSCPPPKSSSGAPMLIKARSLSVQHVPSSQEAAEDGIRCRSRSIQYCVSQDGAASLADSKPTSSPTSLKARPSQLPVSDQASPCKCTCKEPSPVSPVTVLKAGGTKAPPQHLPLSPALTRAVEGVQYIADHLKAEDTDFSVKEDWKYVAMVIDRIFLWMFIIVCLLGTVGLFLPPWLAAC
Sequence of α-Bungarotoxin-insensitive (α4β2) neuronal nicotinic receptor (P12390 25-500): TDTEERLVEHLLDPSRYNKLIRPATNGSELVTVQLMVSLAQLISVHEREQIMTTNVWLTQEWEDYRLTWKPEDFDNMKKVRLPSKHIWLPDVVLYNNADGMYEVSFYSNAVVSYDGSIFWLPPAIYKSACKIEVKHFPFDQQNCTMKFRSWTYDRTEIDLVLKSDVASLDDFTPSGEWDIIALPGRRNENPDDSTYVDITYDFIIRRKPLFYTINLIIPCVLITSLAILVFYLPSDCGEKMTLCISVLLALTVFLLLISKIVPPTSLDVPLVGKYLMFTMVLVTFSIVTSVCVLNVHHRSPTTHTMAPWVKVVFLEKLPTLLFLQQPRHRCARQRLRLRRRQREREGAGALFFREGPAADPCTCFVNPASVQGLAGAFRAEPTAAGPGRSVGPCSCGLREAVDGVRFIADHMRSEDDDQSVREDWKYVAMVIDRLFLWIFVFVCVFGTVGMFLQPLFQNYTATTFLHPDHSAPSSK

male Balb/cJ mice = assay: Forced swim test in mice; type: in vivo
Method: The subjects were male Balb/cJ mice obtained from Jackson Laboratory, Bar Harbor, Me. Mice were housed 4 per cage under controlled conditions of temperature, relative humidity and light-dark cycle with free access to food and water.
Mice were individually placed into clear glass cylinders (i.e., 15 cm tall×10 cm wide, 1 L beakers) containing 23±1° C. water 12 cm deep (approximately 800 mL). The time the animal spent immobile was recorded over a 6 min trial. Immobility was described as the postural position of floating in the water.
The mice were injected intraperitoneally (i.p.) 30 minutes before the start of the test. In another set of experiments, the test compounds were administered orally (p.o.) 30 minutes before the start of the test.
The length of time spent floating was analyzed by Analysis of Variance (ANOVA) with dose of drug as the between-subject factor and time spent immobile across the 6 min test as the dependent variable. Post-hoc comparisons between the treatment groups and control group were made using Fisher's PLSD test. A significance level of 5% was used throughout.

α4β4 nicotinic receptor = target: T1, α4β4 nicotinic receptor (Rattus norvegicus, UniProt P09483+P12392); type: binding
T1 construct: expressed in transfected cells; host or cells: stably transfected cell lines (e.g., HEK293, COS, CHO, NIH3T3)
T1 sequence (P09483 31-630): as the sequence (P09483 31-630) above
T1 sequence (P12392 21-495): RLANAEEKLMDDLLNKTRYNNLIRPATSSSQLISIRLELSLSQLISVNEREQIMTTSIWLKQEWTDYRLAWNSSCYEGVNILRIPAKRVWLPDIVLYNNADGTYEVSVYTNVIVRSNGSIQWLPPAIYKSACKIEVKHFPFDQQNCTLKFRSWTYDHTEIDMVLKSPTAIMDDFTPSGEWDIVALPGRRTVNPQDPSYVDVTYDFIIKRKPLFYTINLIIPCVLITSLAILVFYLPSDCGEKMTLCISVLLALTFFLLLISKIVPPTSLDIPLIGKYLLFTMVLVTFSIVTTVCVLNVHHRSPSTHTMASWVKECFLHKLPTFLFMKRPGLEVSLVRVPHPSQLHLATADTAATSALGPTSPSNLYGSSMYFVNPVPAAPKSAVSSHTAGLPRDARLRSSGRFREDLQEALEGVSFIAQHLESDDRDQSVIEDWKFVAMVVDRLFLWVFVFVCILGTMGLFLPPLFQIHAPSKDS
Method: All binding assays were performed according to procedures set forth in the University of North Carolina at Chapel Hill National Institute of Mental Health Psychoactive Drug Screening Program Assay Protocol Book (pp. 50-54; PI: Bryan L. Roth MD, PhD).
Nicotinic receptors: α2β2, α2β4, α3β2, α3β4, α4β2, α4β4, endogenous α4β2. Assay buffer: 50 mM Tris-HCl, pH 7.4. Membrane fraction source: Stably transfected cell lines (e.g., HEK293, COS, CHO, NIH3T3) (α2β2, α2β4, α3β2, α3β4, α4β2, α4β4) or rat forebrain (α4β2).
Aliquots (50 μl) of radioligand were dispensed into the wells of a 96-well plate containing 100 μl of assay buffer. Then, duplicate 50-0 aliquots of the test and reference compound dilutions were added. […]
The 250-μl reactions were incubated at room temperature and shielded from light (to prevent photolysis of light-sensitive ligands) for 4 hours, then harvested by rapid filtration onto Whatman GF/B glass fiber filters pre-soaked with 0.5% polyethyleneimine using a 96-well Brandel harvester. […] The tubes were capped, labeled, and counted by liquid scintillation counting. […]

Structure (SMILES) | inhibition at 0.1 µM [1] [%] | other results
OCc1cc(-c2cncc(OC[C@@H]3CCN3)c2)on1 [Example 37, 5-[5-(2(S)-Azetidinylmethoxy)-3-pyridyl]-3-isoxazolylmethanol] | 59 to 100 | 
c1ncc(N2CC3CC3C2)cc1OC[C@@H]1CCN1 (stereo partly drawn) [Example 46, 3-[5-[(2(S)-Azetidinyl)methoxy]-3-pyridyl]-3-azabicyclo[3.1.0]hexane] | 59 to 100 | 
CC(=O)NCCCc1cccc(-c2cncc(OC[C@@H]3CCN3)c2)c1 [Example 22, N-(3-[3-[5-[(2(S)-Azetidinyl)methoxy]-3-pyridyl]phenyl]propyl]acetamide] | 59 to 100 | 
c1ccc(OCCC2CCN(c3cncc(OC[C@@H]4CCCN4)c3)CC2)cc1 [Example 58, 3-[4-(2-Phenoxyethyl)-1-piperidinyl]-5-[(2(S)-pyrrolidinyl)methoxy]pyridine] | 8 to 28 | 
OCC[C@H]1C[C@@H]1c1cncc(OC[C@@H]2CCN2)c1 [Example 2, 2-[(1R,2S)-2-[5-[(2(S)-Azetidinyl)methoxy]-3-pyridyl]cyclopropyl]ethanol] | 59 to 100 | effects in the forced swim test as indicated by a reduction in immobility time (male Balb/cJ mice; mouse, in vivo, ip): positive effects; Average Immobility Time (male Balb/cJ mice; mouse, in vivo, ip, 10 mg/kg): 44** seconds; Average Immobility Time (male Balb/cJ mice; mouse, in vivo, ip, 20 mg/kg): 7** seconds
CN1CCC[C@H]1COc1cncc(-c2cc(CCCOc3ccccc3)no2)c1 [Example 41, 3-[(1-Methyl-2(S)-pyrrolidinyl)methoxy]-5-[3-(3-phenoxypropyl)-5-isoxazolyl]pyridine Hydrochloride] | 59 to 100 | 
c1ccc(OC[C@H]2C[C@@H]2c2cncc(OC[C@@H]3CCN3)c2)cc1 [Example 11, 3-[(2(S)-Azetidinyl)methoxy]-5-[(1S,2S)-2-(phenoxymethyl)cyclopropyl]pyridine] | 59 to 100 | 
OCCCc1cccc(-c2cncc(OC[C@@H]3CCN3)c2)c1 [Example 15c, 3-[3-[5-[(2(S)-Azetidinyl)methoxy]-3-pyridyl]phenyl]-1-propanol] | 59 to 100 | change in immobility time compared to the vehicle (male Balb/cJ mice; mouse, in vivo): did not show any change; reduction in immobility time compared to vehicle (male Balb/cJ mice; mouse, in vivo): 24.5 s; effects in the forced swim test as indicated by a reduction in immobility time (male Balb/cJ mice; mouse, in vivo, ip): positive effects; Average Immobility Time (male Balb/cJ mice; mouse, in vivo, ip, 5 mg/kg): 110.6 s; Average Immobility Time (male Balb/cJ mice; mouse, in vivo, ip, 10 mg/kg): 105.1** seconds and 85.3** seconds; Average Immobility Time (male Balb/cJ mice; mouse, in vivo, ip, 20 mg/kg): 49.7** seconds
OCCc1cccc(-c2cncc(OC[C@@H]3CCN3)c2)c1 [Example 24, 2-[3-[5-[(2(S)-Azetidinyl)methoxy]-3-pyridyl]phenyl]ethanol] | 59 to 100 | 
c1cncc(OC[C@H]2C[C@@H]2c2cncc(OC[C@@H]3CCN3)c2)c1 [Example 12, 3-[(2(S)-Azetidinyl)methoxy]-5-[(1S,2S)-2-[(3-pyridyloxy)methyl]cyclopropyl]pyridine] | 59 to 100 | 
OCCCc1cccc(-c2cncc(OC[C@H]3CCN3)c2)c1 [Example 19, 3-[3-[5-[(2(R)-Azetidinyl)methoxy]-3-pyridyl]phenyl]-1-propanol] | 59 to 100 | 
Oc1ccc(OCCC2CCN(c3cncc(OC[C@@H]4CCCN4)c3)CC2)cc1 [Example 70, 4-[2-[1-[5-[(2(S)-Pyrrolidinyl)methoxy]-3-pyridyl]-4-piperidinyl]ethoxy]phenol] | 8 to 28 | 
c1ccc(COCCC2CCN(c3cncc(OC[C@H]4CCCN4)c3)CC2)cc1 [Example 62, 3-[4-[2-(Benzyloxy)ethyl]-1-piperidinyl]-5-[(2(R)-pyrrolidinyl)methoxy]pyridine] | 8 to 28 | 
OCCCc1ccc(-c2cncc(OC[C@@H]3CCN3)c2)cc1 [Example 15d] | 59 to 100 | 
c1ccc(COC[C@H]2C[C@@H]2c2cncc(OC[C@@H]3CCN3)c2)nc1 [Example 14, 3-[(2(S)-Azetidinyl)methoxy]-5-[(1S,2S)-2-[(2-pyridinylmethoxy)methyl]cyclopropyl]pyridine] | 59 to 100 | 
OCC[C@H]1C[C@@H]1c1cncc(OC[C@@H]2CCN2)c1 [drawing 418] |  | Ki (α4β4 nicotinic receptor): 83 nM
c1ccc(COCCC2CCN(c3cncc(OC[C@@H]4CCCN4)c3)CC2)cc1 [Example 51, 3-[4-[2-(Benzyloxy)ethyl]-1-piperidinyl]-5-[(2(S)-pyrrolidinyl)methoxy]pyridine] | 59 to 100 | 
CN[C@H]1CC[C@@H](c2ccc(Cl)c(Cl)c2)c2ccccc21 [Sertraline, sertraline, reference compound] |  | Average Immobility Time (male Balb/cJ mice; Table 2, 20 mg/kg i.p., 30 min before test, 6 min trial, vehicle 126.3): 11.99** seconds; Average Immobility Time (male Balb/cJ mice; Table 4, 10 mg/kg i.p., 30 min before test, 6 min trial, vehicle 115.2): 23.7** seconds; Average Immobility Time (male Balb/cJ mice; Table 5, 10 mg/kg i.p., 30 min before test, 6 min trial, vehicle 104.9): 47.8** seconds
OCCCCC#Cc1cncc(OC[C@@H]2CCN2)c1 [AMOP—H—OH] |  | effects in the forced swim test as indicated by a reduction in immobility time (male Balb/cJ mice; mouse, in vivo, ip): positive effects; Average Immobility Time (male Balb/cJ mice; mouse, in vivo, ip, 0.3 mg/kg): 116.7 s; Average Immobility Time (male Balb/cJ mice; mouse, in vivo, ip, 1 mg/kg): 20.2** seconds; Average Immobility Time (male Balb/cJ mice; mouse, in vivo, ip, 10 mg/kg): 5.3** seconds
c1ccc(COCCc2cccc(-c3cncc(OC[C@@H]4CCN4)c3)c2)cc1 [Example 27, 3-[((2S)-Azetidinyl)methoxy]-5-[3-[2-(benzyloxy)ethyl]phenyl]pyridine] | 59 to 100 | 
